Data: article PMC6277767, “Broad and Region-Specific Impacts of the Synthetic Cannabinoid CP 55,940 in Adolescent and Adult Female Mouse Brains” (Frontiers in Molecular Neuroscience, 2018)

System: CD1 female mouse brain lipidome
Experiment: Brain-region lipid levels (HPLC/MS/MS lipidomics) 2 h after single i.p. 3 mg/kg CP 55,940 vs vehicle
Assay type: in vivo
Design: N-arachidonoyl phenylalanine level, Mean / N-stearoyl tryptophan level, Mean / N-stearoyl proline level, Mean / N-stearoyl leucine level, Mean / N-stearoyl phenylalanine level, Mean / N-stearoyl serine level, Mean / N-stearoyl methionine level, Mean: unit: moles per gram
Details: cerebellum
Experimental: The Bloomington Institutional Animal Care and Use Committee of Indiana University reviewed and approved the animal procedures. Female mice from the CD1 strain were utilized to match our study examining THC’s effects on the brain lipidome ([Leishman et al., 2018]). Mice were given a single i.p. injection of either 3 mg/kg CP or 1:1:18 cremophor:ethanol:saline vehicle (please refer to the section “3 mg/kg CP Is Relevant for Synthetic Cannabinoid Abuse and Has Stronger Effects on the Female Mouse Brain Lipidome During Adolescence” for a justification of dose and use of female mice). Three different age groups were given injections: PND 35 and PND 50 adolescents, and adult mice (PND 113). At least eight mice in each age group received CP and at least eight received vehicle. Matching the THC study time course ([Leishman et al., 2018]), mice were sacrificed via rapid decapitation 2 h after injection. Brains were immediately removed and flash-frozen in liquid nitrogen, and then stored at -80°C until dissections were performed. Brains were dissected on an ice-cold dissection plate into the following regions: STR, HIPP, CER, THAL, CTX, HYP, MID, and STEM. These abbreviations for these brain areas will be used exclusively when discussing the results generated by these specific dissections. Each dissected area was immediately placed in liquid nitrogen and then stored at -80°C until used for lipid extraction.
Tissue extracts were performed as previously described ([Bradshaw et al., 2006]; [Stuart et al., 2013]; [Raboune et al., 2014]; [Leishman et al., 2016a],[b], [2017], [2018]). First, samples were shock frozen in liquid nitrogen, weighed, and transferred to a centrifuge tube. The mass of the largest sample was multiplied by 50 to determine how many milliliters of HPLC-grade methanol (Fisher, Fair Lawn, NJ, United States) to add. Then, samples were spiked with 500 pmol deuterium-labeled NAGly (d8NAGly; Cayman Chemical, Ann Arbor, MI, United States). Samples were placed on ice in darkness for 2 h then individually homogenized and centrifuged at 19,000 × g for 20 min at 20°C. Supernatants were diluted with HPLC water (purified in house) to make a solution of 75% water, 25% supernatant. Lipids were partially purified on C18 solid phase extraction columns (Agilent, Palo Alto, CA, United States). A series of four elutions with 1.5 mL of 60%, 75%, 85%, and 100% methanol were collected ([Stuart et al., 2013]; [Leishman et al., 2016a],[b], [2018]).
As previously described ([Bradshaw et al., 2006]; [Tan et al., 2006]; [Smoum et al., 2010]; [Stuart et al., 2013]; [Tortoriello et al., 2013]; [Raboune et al., 2014]; [Leishman et al., 2016a],[b], [2017], [2018]), samples were analyzed using an Applied Biosystems API 3000 triple quadrupole mass spectrometer with electrospray ionization (Foster City, CA, United States). Using an Agilent XDB-C18 reversed phase analytical column and optimized mobile phase gradients, 20 μL from each elution were chromatographed. Two Shimadzu 10ADvp pumps (Columbia, MD, United States) provided the pressure for gradient elution. Mobile phase A: 20% methanol, 80% water (v/v) and 1 mM ammonium acetate (Sigma, St. Louis, MO, United States). Mobile phase B: 100% methanol, 1 mM ammonium acetate. Every method run began with 0% mobile phase B, reached 100% mobile phase B flowing at 0.2 mL/min, and gradually returned to 0% mobile phase B.
This screening library will be referred to as the lipidome when discussing data from this study. HPLC/MS/MS data were analyzed using Analyst software (Applied Biosystems) ([Bradshaw et al., 2006]; [Tan et al., 2006]; [Stuart et al., 2013]; [Tortoriello et al., 2013]; [Raboune et al., 2014]; [Leishman et al., 2016a],[b], [2017], [2018]). Chromatograms (Supplementary Figure 3) were generated by determining the retention time of analytes from the analytical column with a [M-1] or [M+1] parent peak and a fragmentation peak corresponding to the programmed values. […]

[1] = PND 50 female mice, 3 mg/kg CP 55,940
[2] = WT adult female mice, 3mg/kg CP 55,940

CCCCCCC(C)(C)c1ccc([C@@H]2C[C@H](O)CC[C@H]2CCCO)c(O)c1 [CP 55,940]
N-arachidonoyl phenylalanine level, Mean [1]: 2.55E-13 | N-arachidonoyl proline level, Mean [1]: BDL | N-arachidonoyl serine level, Mean [1]: 4.25E-12 | N-arachidonoyl taurine level, Mean [1]: 1.97E-11 | N-arachidonoyl tryptophan level, Mean [1]: BDL | N-arachidonoyl tyrosine level, Mean [1]: 2.66E-13 | N-docosahexaenoyl GABA level, Mean [1]: 9.21E-13 | N-docosahexaenoyl ethanolamine level, Mean [1]: 3.09E-11 | N-docosahexaenoyl glycine level, Mean [1]: 4.01E-13 | N-docosahexaenoyl leucine level, Mean [1]: 2.06E-13 | N-docosahexaenoyl phenylalanine level, Mean [1]: 2.68E-13 | N-docosahexaenoyl proline level, Mean [1]: BDL | N-docosahexaenoyl serine level, Mean [1]: 8.95E-12 | N-docosahexaenoyl tryptophan level, Mean [1]: BDL | N-docosahexaenoyl tyrosine level, Mean [1]: 6.76E-13 | N-linoleoyl GABA level, Mean [1]: 6.58E-13 | N-linoleoyl alanine level, Mean [1]: 7.79E-14 | N-linoleoyl ethanolamine level, Mean [1]: 3.74E-11 | N-linoleoyl glycine level, Mean [1]: 1.39E-13 | N-linoleoyl leucine level, Mean [1]: 5.12E-14 | N-linoleoyl proline level, Mean [1]: BDL | N-linoleoyl serine level, Mean [1]: 5.53E-11 | N-linoleoyl tryptophan level, Mean [1]: BDL | N-linoleoyl tyrosine level, Mean [1]: BDL | N-nervonoyl valine level, Mean [1]: BDL | N-oleoyl GABA level, Mean [1]: 2.42E-12 | N-oleoyl alanine level, Mean [1]: 9.8E-13 | N-oleoyl dopamine level, Mean [1]: BDL | N-oleoyl ethanolamine level, Mean [1]: 6.07E-11 | N-oleoyl glycine level, Mean [1]: 1.13E-12 | N-oleoyl leucine level, Mean [1]: 5.63E-13 | N-oleoyl methionine level, Mean [1]: 2.55E-13 | N-oleoyl phenylalanine level, Mean [1]: 1.01E-12 | N-oleoyl proline level, Mean [1]: BDL | N-oleoyl serine level, Mean [1]: 1.05E-10 | N-oleoyl tryptophan level, Mean [1]: BDL | N-oleoyl tyrosine level, Mean [1]: 3.12E-13 | N-oleoyl valine level, Mean [1]: 4.78E-14 | N-palmitoyl GABA level, Mean [1]: 5.13E-12 | N-palmitoyl alanine level, Mean [1]: 2.64E-12 | N-palmitoyl ethanolamine level, Mean [1]: 5.07E-11 | N-palmitoyl glycine level, Mean [1]: 3.72E-12 | N-palmitoyl leucine level, Mean [1]: 1.13E-12 | N-palmitoyl methionine level, Mean [1]: 9.79E-13 | N-palmitoyl phenylalanine level, Mean [1]: 1.27E-12 | N-palmitoyl proline level, Mean [1]: BDL | N-palmitoyl serine level, Mean [1]: 1.43E-11 | N-palmitoyl tryptophan level, Mean [1]: BDL | N-palmitoyl tyrosine level, Mean [1]: 6.09E-13 | N-palmitoyl valine level, Mean [1]: 1.77E-13 | N-stearoyl GABA level, Mean [1]: 5.74E-12 | N-stearoyl alanine level, Mean [1]: 1.16E-12 | N-stearoyl ethanolamine level, Mean [1]: 2.6E-11 | N-stearoyl glycine level, Mean [1]: 5.05E-13 | N-stearoyl leucine level, Mean [1]: 8.15E-13 | N-stearoyl methionine level, Mean [1]: 4.91E-13 | N-stearoyl phenylalanine level, Mean [1]: 1.17E-12 | N-stearoyl proline level, Mean [1]: BDL | N-stearoyl serine level, Mean [1]: 3.32E-11 | N-stearoyl tryptophan level, Mean [1]: BDL | N-stearoyl tyrosine level, Mean [1]: 1.08E-13 | Oleic acid level, Mean [1]: 2.36E-10 | PGE2 level, Mean [1]: 5.14E-11 | THC level, Mean [1]: BDL | 2-arachidonoyl glycerol level, Mean [2]: 4.32E-09 | 2-linoleoyl glycerol level, Mean [2]: 2.44E-10 | 2-oleoyl glycerol level, Mean [2]: 1.94E-09 | 2-palmitoyl glycerol level, Mean [2]: 1.01E-10 | 6-ketoPGF1α level, Mean [2]: 2.25E-11 | Arachidonic acid level, Mean [2]: 7.51E-10 | Linoleic acid level, Mean [2]: 6.75E-10 | N-arachidonoyl GABA level, Mean [2]: 1.22E-11 | N-arachidonoyl ethanolamine level, Mean [2]: 1.33E-11 | N-arachidonoyl glycine level, Mean [2]: 1.43E-13 | N-arachidonoyl phenylalanine level, Mean [2]: 4.52E-14 | N-arachidonoyl taurine level, Mean [2]: 6.54E-11 | N-docosahexaenoyl GABA level, Mean [2]: 8.3E-12 | N-docosahexaenoyl ethanolamine level, Mean [2]: 2.78E-11 | N-docosahexaenoyl glycine level, Mean [2]: 7.91E-14 | N-docosahexaenoyl leucine level, Mean [2]: 1.51E-12 | N-docosahexaenoyl phenylalanine level, Mean [2]: 3.04E-14 | N-linoleoyl GABA level, Mean [2]: 7.7E-12 | N-linoleoyl alanine level, Mean [2]: 2.18E-13 | N-linoleoyl ethanolamine level, Mean [2]: 1.87E-11 | N-linoleoyl glycine level, Mean [2]: 6.99E-14 | N-linoleoyl serine level, Mean [2]: 1.99E-11 | N-oleoyl GABA level, Mean [2]: 1.65E-11 | N-oleoyl alanine level, Mean [2]: 2.34E-12 | N-oleoyl ethanolamine level, Mean [2]: 2.04E-10 | N-oleoyl glycine level, Mean [2]: 2.49E-13 | N-oleoyl leucine level, Mean [2]: 1.06E-12 | N-oleoyl phenylalanine level, Mean [2]: 6.03E-13 | N-oleoyl serine level, Mean [2]: 1.05E-10 | N-oleoyl tyrosine level, Mean [2]: 8.96E-13 | N-oleoyl valine level, Mean [2]: 2.42E-14 | N-palmitoyl GABA level, Mean [2]: 2.25E-11 | N-palmitoyl alanine level, Mean [2]: 1.61E-12 | N-palmitoyl ethanolamine level, Mean [2]: 6.47E-11 | N-palmitoyl glycine level, Mean [2]: 1.24E-12 | N-palmitoyl leucine level, Mean [2]: 1.34E-12 | N-palmitoyl methionine level, Mean [2]: 6.89E-12 | N-palmitoyl phenylalanine level, Mean [2]: 1.87E-13
